Laboratory results reported in patent publication US20260250290A1 (BRISTOL-MYERS SQUIBB COMPANY, priority 2023, published 2026).
pIC50: −log10 of the molar value.

The molecules below were run against T1, SGK1 (Homo sapiens, UniProt O00141) (assay: SGK1 inhibition Assay B (Echo mass spectrometry of phosphorylated peptide product)). Details: 60 min at room temperature.
T1 sequence (O00141 1-431): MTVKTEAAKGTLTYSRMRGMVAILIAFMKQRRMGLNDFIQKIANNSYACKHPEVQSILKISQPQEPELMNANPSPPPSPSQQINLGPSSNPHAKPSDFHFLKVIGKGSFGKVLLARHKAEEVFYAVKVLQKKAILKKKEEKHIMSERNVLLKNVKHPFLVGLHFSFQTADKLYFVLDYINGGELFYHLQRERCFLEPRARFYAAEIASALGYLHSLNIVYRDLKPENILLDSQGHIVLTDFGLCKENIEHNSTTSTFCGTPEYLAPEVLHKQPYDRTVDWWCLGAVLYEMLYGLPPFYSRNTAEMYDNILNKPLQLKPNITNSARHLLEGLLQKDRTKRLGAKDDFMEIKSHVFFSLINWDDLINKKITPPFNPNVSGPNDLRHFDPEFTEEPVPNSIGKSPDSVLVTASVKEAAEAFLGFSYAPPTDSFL
Type: biochemical

In order of falling pIC50:
1. Cc1nc(O[C@H]2CC[C@@H](NC3CCOCC3)CC2)c(C(=O)N[C@@H]2CCCN(c3cc(C4=CC(=O)OC4)n4ncnc(N)c34)C2)s1 [Example 1002, N—((R)-1-(4-amino-7-(5-oxo-2,5-dihydrofuran-3-yl)pyrrolo[2,1-f][1,2,4]triazin-5-yl)piperidin-3-yl)-2-methyl-4-(((1S,4S)-4-((tetrahydro-2H-pyran-4-yl)amino)cyclohexyl)oxy)thiazole-5-carboxamide]  9.52
2. CCC(C)(C)NC1CCC(Oc2nc(C)sc2C(=O)N[C@@H]2CCCN(c3cc(C4=C(C)C(=O)OC4)n4ncnc(N)c34)C2)CC1 (stereo partly drawn) [Example 1005, (R)—N-(1-(4-amino-7-(4-methyl-5-oxo-2,5-dihydrofuran-3-yl)pyrrolo[2,1-f][1,2,4]triazin-5-yl)piperidin-3-yl)-2-methyl-4-((4-(tert-pentylamino)cyclohexyl)oxy)thiazole-5-carboxamide]  9.30
3. Nc1ncnn2c(-c3ccc(-n4cnnn4)c(F)c3)cc(N3CCC[C@@H](NC(=O)c4sc(Cl)cc4OC4CC5CC4CN5C4COC4)C3)c12 (stereo partly drawn) [Example 994, N—((R)-1-(4-amino-7-(3-fluoro-4-(1H-tetrazol-1-yl)phenyl)pyrrolo[2,1-f][1,2,4]triazin-5-yl)piperidin-3-yl)-5-chloro-3-((2-(oxetan-3-yl)-2-azabicyclo[2.2.1]heptan-5-yl)oxy)thiophene-2-carboxamide]  9.22
4. Cc1nc(OC2CCC(N3CC(O)C3)CC2)c(C(=O)N[C@@H]2CCCN(c3cc(C4=CC(=O)OC4)n4ncnc(N)c34)C2)s1 (stereo partly drawn) [Example 997, (R)-N-(1-(4-amino-7-(5-oxo-2,5-dihydrofuran-3-y1)pyrrolo[2,1-f] [1,2,4]triazin-5-y1)piperidin-3-y1)-4-((4~(3-hydroxyazetidin-1-yl)cyclohexyl)oxy)-2-methylthiazole-5-carboxamide]  9.22
5. CCC(C)(C)NC1CCC(Oc2nc(C)sc2C(=O)N[C@@H]2CCCN(c3cc(C4=CC(=O)OC4)n4ncnc(N)c34)C2)CC1 (stereo partly drawn) [Example 1001, (R)—N-(1-(4-amino-7-(5-oxo-2,5-dihydrofuran-3-yl)pyrrolo[2,1-f][1,2,4]triazin-5-yl)piperidin-3-yl)-2-methyl-4-((4-(tert-pentylamino)cyclohexyl)oxy)thiazole-5-carboxamide]  9.22
6. Cc1nc(OC2CCC(N3CC(C)C3)CC2)c(C(=O)N[C@@H]2CCCN(c3cc(C4=CC(=O)OC4)n4ncnc(N)c34)C2)s1 (stereo partly drawn) [Example 999, (R)-N-(1-(4-amino-7-(5-oxo-2,5-dihydrofuran-3-y1)pyrrolo[2,1-f] [1,2,4]triazin-5-yl)piperidin-3-y1)-2-methyl-4-((4-(3-methylazetidin-1-yl)cyclohexyl)oxy)thiazole-5-carboxamide]  9.15
7. COCC(C)(C)NC1CCC(Oc2nc(C)sc2C(=O)N[C@@H]2CCCN(c3cc(C4=CC(=O)OC4)n4ncnc(N)c34)C2)CC1 (stereo partly drawn) [Example 1000, (R)—N-(1-(4-amino-7-(5-oxo-2,5-dihydrofuran-3-yl)pyrrolo[2,1-f][1,2,4]triazin-5-yl)piperidin-3-yl)-4-((4-((1-methoxy-2-methylpropan-2-yl)amino)cyclohexyl)oxy)-2-methylthiazole-5-carboxamide]  9.15
8. CN1CC2CCC1CC2Oc1cc(Cl)sc1C(=O)N[C@@H]1CCCN(c2cc(-c3ccc(=O)n(CC(F)F)c3)n3ncnc(N)c23)C1 (stereo partly drawn) [Example 991, N—((R)-1-(4-amino-7-(1-(2,2-difluoroethyl)-6-oxo-1,6-dihydropyridin-3-yl)pyrrolo[2,1-f][1,2,4]triazin-5-yl)piperidin-3-yl)-5-chloro-3-((2-methyl-2-azabicyclo[2.2.2]octan-5-yl)oxy)thiophene-2-carboxamide]  9.10
9. CCC(CC)N[C@H]1CC[C@@H](Oc2nc(C)sc2C(=O)N[C@@H]2CCCN(c3cc(C4=CC(=O)OC4)n4ncnc(N)c34)C2)CC1 [Example 1003, N—((R)-1-(4-amino-7-(5-oxo-2,5-dihydrofuran-3-yl)pyrrolo[2,1-f][1,2,4]triazin-5-yl)piperidin-3-yl)-2-methyl-4-(((1S,4S)-4-(pentan-3-ylamino)cyclohexyl)oxy)thiazole-5-carboxamide]  9.10
10. CC1=C(c2cc(N3CCCC(NC(=O)c4sc(C)nc4OC4CCC(N5CCC5)CC4)C3)c3c(N)ncnn23)COC1=O [Example 1006, (R)-N-(1-(4-amino-7-(4-methyl-5-oxo-2,5-dihydrofuran-3-yl)pyrrolo[2,1-f][1,2,4]triazin-5-y1)piperidin-3-y1)-4-((4-(azetidin-1-yl)cyclohexyl)oxy)-2-methylthiazole-5-carboxamide]  9.10
11. CC(=O)N1CC=C(c2cc(N3CCC[C@@H](NC(=O)c4sc(Cl)cc4OC4CC5COCC(C4)N5)C3)c3c(N)ncnn23)C1 (stereo partly drawn) [Example 986E, 3-((3-Oxa-9-azabicyclo[3.3.1]nonan-7-yl)oxy)-N—((R)-1-(7-(1-acetyl-2,5-dihydro-1H-pyrrol-3-yl)-4-aminopyrrolo[2,1-f][1,2,4]triazin-5-yl)piperidin-3-yl)-5-chlorothiophene-2-carboxamide]  9.05
12. CC(C)N1CC2CCC1CC2Oc1cc(Cl)sc1C(=O)N[C@@H]1CCCN(c2cc(-c3ccc(-n4cnnn4)nc3)n3ncnc(N)c23)C1 (stereo partly drawn) [Example 989, N—((R)-1-(7-(6-(1H-tetrazol-1-yl)pyridin-3-yl)-4-aminopyrrolo[2,1-f][1,2,4]triazin-5-yl)piperidin-3-yl)-5-chloro-3-((2-isopropyl-2-azabicyclo[2.2.2]octan-5-yl)oxy)thiophene-2-carboxamide]  9.05
13. [2H]C([2H])([2H])N([C@H]1CC[C@@H](Oc2nc(C)sc2C(=O)N[C@@H]2CCCN(c3cc(C4=CC(=O)OC4)n4ncnc(N)c34)C2)CC1)C([2H])([2H])[2H] [Example 1004, N—((R)-1-(4-amino-7-(5-oxo-2,5-dihydrofuran-3-yl)pyrrolo[2,1-f][1,2,4]triazin-5-yl)piperidin-3-yl)-4-(((1S,4S)-4-(bis(methyl-d3)amino)cyclohexyl)oxy)-2-methylthiazole-5-carboxamide]  9.05
14. CC(=O)N1CC=C(c2cc(N3CCC[C@@H](NC(=O)c4sc(Cl)cc4OC4CCCN(C(C)C)CC4)C3)c3c(N)ncnn23)C1 (some centres unmarked) [Example 987]  9.00
15. CN(C)CC(=O)N1CC2CCC1CC2Oc1cc(Cl)sc1C(=O)N[C@@H]1CCCN(c2cc(-c3ccc(-n4cnnn4)nc3)n3ncnc(N)c23)C1 (some centres unmarked) [Example 990]  9.00
16. CC(C)N1CC2(CC(Oc3cc(Cl)sc3C(=O)N[C@@H]3CCCN(c4cc(-c5ccnc(C#N)c5)n5ncnc(N)c45)C3)C2)C1 [Example 995]  9.00
17. COC[C@@H](C)N[C@H]1CC[C@@H](Oc2nc(C)sc2C(=O)N[C@@H]2CCCN(c3cc(C4=C(C)C(=O)OC4)n4ncnc(N)c34)C2)CC1 [Example 1007, N-((R)-1-(4-amino-7-(4-methyl-5-oxo-2.5-dihydrofuran-3-yl)pyrrolo[2,1-f][1,2,4]triazin-5-y1)piperidin-3-y1)-4-((4-(((R)-1-methoxypropan-2-yl)amino)cyclohexyl)oxy)-2~methylthiazole-5-carboxamide]  9.00
18. COC[C@@H](C)NC1CCC(Oc2nc(C)sc2C(=O)N[C@@H]2CCCN(c3cc(C4=C(C)C(=O)OC4)n4ncnc(N)c34)C2)CC1 (stereo partly drawn) [Example 1008, N-((R)-1-(4-amino-7-(4-methyl-5-oxo-2,5-dihydrofuran-3-y1)pyrrolo[2,1-f][1,2,4]triazin-5-yl)piperidin-3-y1)-4-((4-(((R)-1-methoxypropan-2-yl)amino)cyclohexyl)oxy)-2-methylthiazole-5-carboxamide]  9.00
19. COC[C@@H](C)NC1CCC(Oc2nc(C)sc2C(=O)N[C@@H]2CCCN(c3cc(C4=CC(=O)OC4)n4ncnc(N)c34)C2)CC1 (stereo partly drawn) [Example 996, N—((R)-1-(4-amino-7-(5-oxo-2,5-dihydrofuran-3-yl)pyrrolo[2,1-f][1,2,4]triazin-5-yl)piperidin-3-yl)-4-((4-(((R)-1-methoxypropan-2-yl)amino)cyclohexyl)oxy)-2-methylthiazole-5-carboxamide]  8.96
20. Cc1nc(OC2CCC(N3CCC3)CC2)c(C(=O)N[C@@H]2CCCN(c3cc(C4=CC(=O)OC4)n4ncnc(N)c34)C2)s1 (stereo partly drawn) [Example 998, (R)-N-(1-(4-amino-7-(5-oxo-2,5-dihydrofuran-3-y1)pyrrolo[2,1-f] [1,2,4]triazin-5-yl)piperidin-3-y1)-4-((4-(azetidin-1-yl)cyclohexyl)oxy)-2-methylthiazole-5-carboxamide]  8.96
21. CC(=O)N1CC=C(c2cc(N3CCC[C@@H](NC(=O)c4sc(Cl)cc4O[C@@H]4C[C@H]5CC[C@@H](C4)O5)C3)c3c(N)ncnn23)C1 [Example 988, 3-(((IR,3s.5S)-8-oxabicyclo[3.2.1]octan-3-y1)oxy)-N-((R)-1-(7-(1-acetyl-2,5-dihydro-1H-pyrrol-3-y1)-4-aminopyrrolo[2,1-f][1,2,4]triazin-5-y1)piperidin-3-y1)-5-chlorothiophene-2-carboxamide]  8.52
22. CCN1CCC(Oc2nc(C)sc2C(=O)N[C@@H]2CCCN(c3cc(C4=CCN(C(=O)C5(C#N)CC5)C4)n4ncnc(N)c34)C2)CC1(C)C (stereo partly drawn) [Example 985, N—((R)-1-(4-Amino-7-(1-(1-cyanocyclopropane-1-carbonyl)-2,5-dihydro-1H-pyrrol-3-yl)pyrrolo[2,1-f][1,2,4]triazin-5-yl)piperidin-3-yl)-4-((1-ethyl-2,2-dimethylpiperidin-4-yl)oxy)-2-methylthiazole-5-carboxamide]  8.40
23. CC(=O)N1CC=C(c2cc(N3CCC[C@@H](NC(=O)c4sc(Cl)cc4OC4CC5COCC(C4)N5CCO)C3)c3c(N)ncnn23)C1 (some centres unmarked) [Example 986]  7.43
